According to US6534650B2, “Benzisoxazole and 4-amidino-3-hydroxyphenyl chemical intermediates” (Eli Lilly and Company, priority 1996, dated 2003):
Where a name gives a salt, the structure may show the parent alone. Read-outs that look alike come from different tables or passages of the source.

Assays:
[1] = Octanol/water distribution coefficient logD at pH 7.4; assay type: physicochemical
[2] = test system: thrombin time (TT) in test plasma; assay: Anticoagulation determination: thrombin time (TT) in plasma; assay type: biochemical; details: compound added to plasma; linear extrapolation to doubling of the clotting time
Description: Dog plasma and rat plasma are obtained from conscious mixed-breed hounds (either sex, hazelton-LRE, Kalamazoo, Mich., U.S.A.) or from anesthetized male Sprague-Dawley rats (Harlan Sprague-Dawley, Inc., Indianapolis, Ind., U.S.A.) by venipuncture into 3.8 percent citrate. Fibrinogen is prepared from in-date ACD human blood as the fraction I-2 according to previous procedures and specifications. Smith, Biochem. J., 185, 1-11 (1980); and Smith, et al., Biochemistry, 11, 2958-2967 (1972). Human fibrinogen is also purchased as 98 percent pure/plasmin free from American Diagnostica, Greenwich, Conn. Coagulation reagents ACTIN, Thromboplastin, and Human plasma are from Baxter Healthcare Corp., Dade Division, Miami, Fla. Bovine thrombin from Parke-Davis (Detroit, Mich.) is used for coagulation assays in plasma.
Coagulation assay procedures are as previously described. Smith, et al., Thrombosis Research, 50, 163-174 (1988). A CoAScreener coagulation instrument (American LABor, Inc.) is used for all coagulation assay measurements. The thrombin time (TT) is measured by adding 0.05 ml saline and 0.05 ml thrombin (10 NIH units/ml) to 0.05 ml test plasma. The activated partial thromboplastin time (APTT) is measured by incubation of 0.05 ml test plasma with 0.05 ml Actin reagent for 120 seconds followed by 0.05 ml CaCl2 (0.02M). The prothrombin time (PT) is measured by adding 0.05 ml saline and 0.05 ml Thromboplastin-C reagent to 0.05 ml test plasma. The compounds of formula I are added to human or animal plasma over a wide range of concentrations to determine prolongation effects on the TT, APTT and PT assays. Linear extrapolations are performed to estimate the concentrations required to double the clotting time for each assay. Each of the particularly preferred examples of the invention listed above was determined to have a TT value of less than 50 ng/mL. For example, the respective values (in ng/mL) for TT were 6, 6 and 23 for the compounds of Examples 1, 3 and 5.

human thrombin = human thrombin (Homo sapiens, UniProt P00734); assay: Inhibition of the amidase activity of thrombin (chromogenic substrate), Kass; assay type: biochemical; details: purified human thrombin, N-benzoyl-L-Phe-L-Val-L-Arg-p-nitroanilide substrate, pH 7.4; mean over a range of concentrations
Description: The assay is carried out by mixing 50 μl buffer (0.03M Tris, 0.15M NaCl, pH 7.4) with 25 μl of human thrombin solution (purified human thrombin, Enzyme Research Laboratories, South Bend, Ind., at 8 NIH units/ml) and 25 μl of test compound in a solvent (50% aqueous methanol (v:v)). Then 150 μl of an aqueous solution of the chromogenic substate (at 0.25 mg/ml) are added and the rates of hydrolysis of the substrate are measured by monitoring the reactions at 405 nm for the release of p-nitroaniline. Standard curves are constructed by plotting free thrombin concentration against hydrolysis rate. The hydrolysis rates observed with test compounds are then converted to “free thrombin” values in the respective assays by use of the standard curves. The bound thrombin (bound to test compound) is calculated by subtracting the amount of free thrombin observed in each assay from the known initial amount of thrombin used in the assay. The amount of free inhibitor in each assay is calculated by subtracting the number of moles of bound thrombin from the number of moles of added inhibitor (test compound).
The Kass value is the hypothetical equilibrium constant for the reaction between thrombin and the test compound (I). [formula]
Kass is calculated for a range of concentrations of test compounds and the mean value reported in units of liter per mole. […] For example, each of the particularly preferred examples of the invention listed above was determined to have a Kass of at least 100×10^6 L/mole.

SMILES | logD [1] | ΔlogD(7.4) [1] | TT (concentration required to double the thrombin clotting time) [2] | Kass (hypothetical equilibrium constant for the reaction between thrombin and the test compound) (human thrombin) | ΔlogD(7.4) ([1]; change versus the corresponding amidino-phenyl compound) | logD ([1]; octanol/water distribution coefficient, read-out: logD(7.4))
CCS(=O)(=O)N[C@H](CC1CCCCC1)C(=O)N1CCC[C@H]1C(=O)NCc1ccc(C(=N)N)c(O)c1 [Example 5, N-ethylsulfonyl-D-cyclohexylalanyl-N-[[4-(aminoiminomethyl)-3-hydroxyphenyl]methyl]-L-prolinamide hydrochloride] | 1.91 | 5.80 log units | 23 ng/mL | 1e+08 L/mol |  | 
N=C(N)c1ccc(CNC(=O)[C@@H]2CCCN2C(=O)[C@@H](CC2CCCCC2)NCC(=O)O)cc1O [Example 3, N-carboxymethyl-D-cyclohexylalanyl-N-[[4-(aminoiminomethyl)-3-hydroxyphenyl]methyl]-L-prolinamide hydrochloride] |  |  | 6 ng/mL | 1,200×10^6 L/mole | 1.13 log units | 0.55
N=C(N)c1ccc(CNC(=O)[C@@H]2CCCN2C(=O)[C@H](N)CC2CCCCC2)cc1O [Example 1, D-cyclohexylalanyl-N-[[4-(aminoiminomethyl)-3-hydroxyphenyl]methyl]-L-prolinamide dihydrochloride] |  |  | 6 ng/mL | 7.7e+08 L/mol |  | 
